Starred links: 1 amine or outer side, 2 acyl side, 3 side chain; linkers in the order of their positions; H or OH if unused. Positions of bridges follow the written chain, without caps; N, C: chain ends. Non-standard residues stand in square brackets, D forms with d. Residues, ends and D or L forms follow the SMILES beside them. Chains are numbered I, II in the order given. Actinocin(9to1) = Cc1c2oc3c(C)ccc(C(=O)[*:1])c3nc-2c(C(=O)[*:2])c(N)c1=O; NMeV = CN[C@H](C(=O)O)C(C)C; Sar = CNCC(=O)O
Experiments:
Type in all cases: cell-based, human
HaCaT cells [1] = assay: Neutral comet assay of UVB-induced DNA damage in HaCaT cells; settings: for reduction of UVB-induced DNA breakage in keratinocytes: L-NAME 1 mM, UVB 10 mJ/cm^2
Procedure: FIGS. 10A-10B: UVB-induced DNA damage in HaCaT cells. The image (FIG. 10A) was captured by Cytation 3 Imaging Analyzer (BioTek, Winooski, Vt.); and, the DNA density (FIG. 10B) was analyzed by ImageJ (Version 1.46r. NIH) with Comet Assay Plugin (Pathology & Lab Med UNC-CH). *: p-value<0.05 vs. DMSO alone; **: p-value<0.05 vs. NAME. ***: p-value<0.05 vs. UV+DMSO. The data represents an average of DNA damage analysis for more than five cells.
To assess the effect of cNOS inhibitor on UVB-induced DNA damage in keratinocutes, HaCaT cells were treated with DMSO (solvent) or L-NAME (1 mM) for 1 hour prior to UVB radiation (10 mJ/cm^2). At […] post-UVB, the cells were collected and DNA damage was determined using a neutral comet assay kit following manufacture's protocol (Trevigen, Gaithersburg, Md.).

HaCaT cells [2] = assay: Soft-agar cell transformation assay after UVB; settings: UVB every other day for 14 days
Procedure: FIG. 11: UVB-induced HaCaT cells transformation. The cell transformation was determined using a Transformation assay kit (Cell Biolabs, Inc.). *: p-value<0.05 vs. control. **: p-value<0.05 vs. UVB alone. The data represents an average of 3 sets of independent experiments.
To determine the chemoprevetive function of cNOS inhibitor for UVB-induced skin cell transformation, cells were treated with sham or UVB every other day for 14 days in the presence or absence of L-NAME (1 mM in media) all time. The cells were detached from plate and same amount of cells were seeded in soft-agar in 96-well microtiter plate. At day 10, the cells alone with soft-agar were solubilized in the wells using Cytoselect buffer (Cell Biolabs, Inc., San Diego, Calif.) and the amount of transformed cells was determined by fluorescence intensity using a Spectra Max M2 fluorescent platereader (Molecular Devices).

IKKα mRNA = assay: Quantitative real-time PCR of IKKα mRNA expression after UVB; settings: HaCaT pre-treated with actinomycin D 5 μg/mL, UVB 50 mJ/cm^2
Procedure: FIG. 3: Quantitative real-time PCR analysis of mRNA expression of IKKα in HaCaT human keratinocyte. The cells were pre-treated with DMSO or […] (Act.D, 5 μg/mL) and treated with of UVB (50 mJ/cm^2). The mRNA expression was normalized to GAP OH expression and depicted as fold change vs. DMSO control.

COC(=O)[C@@H](N)CCCNC(=N)N[N+](=O)[O-] [L-NAME]
percentage of UVB-induced tail DNA content (HaCaT cells [1]; L-NAME 1 mM for 1 hour prior to UVB 10 mJ/cm^2, cells collected at 30 mM post-UVB, UVB+DMSO 49.2%): 32.4% | tail DNA content, L-NAME alone (HaCaT cells [1]; L-NAME 1 mM without UVB, DMSO alone 20.7%): 25.6% | reduction of UVB-induced DNA breakage in keratinocytes (HaCaT cells [1]; Control = DMSO alone): 58.9% | reduction of UVB-induced DNA breakage in keratinocytes (HaCaT cells [1]; Control = L-NAME alone): 71.2% | suppression of UVB-induced transformation of keratinocytes (HaCaT cells [2]; L-NAME 1 mM in media): almost totally suppresses | reading of transformed cells (fluorescence intensity) (HaCaT cells [2]; L-NAME 1 mM in media all time, soft-agar day 10, UVB alone 3.2): 1.3

Cc1c2oc3c(C)ccc(C(=O)N[C@@H]4C(=O)N[C@H](C(C)C)C(=O)N5CCC[C@H]5C(=O)N(C)CC(=O)N(C)[C@@H](C(C)C)C(=O)O[C@@H]4C)c3nc-2c(C(=O)N[C@@H]2C(=O)N[C@H](C(C)C)C(=O)N3CCC[C@H]3C(=O)N(C)CC(=O)N(C)[C@@H](C(C)C)C(=O)O[C@@H]2C)c(N)c1=O [actinomycin D] (I: T[dV]P[Sar][NMeV] / II: T[dV]P[Sar][NMeV]; ester I:1-I:C, II:1-II:C; linker I:N-II:N via Actinocin(9to1))
effect on IKKα mRNA level post-UVB (IKKα mRNA): does not have a statistically significant effect

From patent US20190038723A1, “Inhibiting UVB-Irradiation Damage By Targeting Nitric Oxide Synthases (cNOS)” (priority 2016, published 2019)
